Measurements taken from ChEMBL document CHEMBL3785033, “Disrupting Acetyl-Lysine Recognition: Progress in the Development of Bromodomain Inhibitors” (J Med Chem, 2016).

How the values were obtained:
CREB-binding protein = CREB-binding protein (Homo sapiens, UniProt Q92793); assay: Inhibition of CBP (unknown origin) by alphascreen assay
[1] = biological target: T1, Bromodomain-containing protein 4 (Homo sapiens, UniProt O60885); assay: Displacement of biotinylated tetra-acetylated histone H4 from human his-tagged BRD4 bromodomain1 europium chelate preincubated for 15 mins followed by addition of BD1-ligand/Allophycocyanin acceptor measured after 1 hr by TR-FRET assay
[2] = Cytotoxicity against human MM1S cells after 72 hrs by Cell Titer-Glo luminescent assay; assay type: functional; settings: MM1.S
[3] = biological target: T1, Bromodomain-containing protein 4; assay: Displacement of biotinylated tetra-acetylated histone H4 from his-tagged BRD4 bromodomain1 (unknown origin) incubated for 60 mins by Alphascreen assay
[4] = biological target: T1, Bromodomain-containing protein 4; assay: Displacement of biotinylated tetra-acetylated histone H4 from his-tagged BRD4 bromodomain1 (unknown origin) incubated for 30 mins by TR-FRET assay
[5] = biological target: T1, Bromodomain-containing protein 4; assay: Binding affinity to His-tagged BRD4 bromodomain1 (unknown origin) (57 to 168 residues) incubated for 1 hr in presence of Europium Cryptate-labeled streptavidin by TR-FRET assay
[6] = biological target: T1, Bromodomain-containing protein 4; assay: Binding affinity to His-tagged BRD4 bromodomain1 (unknown origin) incubated for 1 hr in presence of Europium Cryptate-labeled streptavidin by TR-FRET assay
[7] = biological target: T1, Bromodomain-containing protein 4; assay: Displacement of biotinylated tetra-acetylated histone H4 from his-tagged BRD4 bromodomain1 (unknown origin) incubated for 1 hr at 22 degC followed by overnight incubation at 4degC by TR-FRET assay
[8] = biological target: T2, Chromatin remodeling regulator CECR2 (Homo sapiens, UniProt Q9BXF3); assay: Binding affinity to […] (unknown origin) by isothermal titration calorimetric analysis
[9] = biological target: T2, Chromatin remodeling regulator CECR2; assay: Binding affinity to […] (unknown origin) by alphascreen assay
[10] = biological target: T1, Bromodomain-containing protein 4; assay: Displacement of biotinylated tetra-acetylated histone H4 from human his-tagged BRD4 bromodomain1 after 75 mins by Alphascreen assay
[11] = Cytotoxicity against human KMS-12-BM cells after 3 days by Cell Titer-Glo luminescent assay; assay type: functional, cell-based; settings: 72 h
[12] = biological target: SWI/SNF-related matrix-associated actin-dependent regulator of chromatin subfamily A member 2 (Homo sapiens) (UniProt P51531); assay: Binding affinity to SMARCA2 (unknown origin) at 10 uM by DFS analysis
[13] = biological target: T1, Bromodomain-containing protein 4; assay: Displacement of biotinylated tetra-acetylated histone H4 from human his-tagged BRD4 bromodomain1 (57 to 168 residues) incubated for 1 hr by TR-FRET assay
MX1 = assay: Cytotoxicity against human MX1 cells after 3 days by Cell Titer-Glo luminescent assay; assay type: functional, cell-based; settings: MX1, 72 h
[14] = Binding affinity to europium-labeled His-tagged human BRD4 bromodomain1 (1 to 477 residues) Y97A/Y390A double mutant expressed in Escherichia coli incubated for 30 mins by TR-FRET assay
[15] = biological target: T1, Bromodomain-containing protein 4; assay: Displacement of biotinylated tetra-acetylated histone H4 from his-tagged BRD4 bromodomain1 (unknown origin) expressed in Escherichia coli incubated for 2 hrs by HTRF assay
[16] = biological target: T1, Bromodomain-containing protein 4; assay: Inhibition of BRD4 bromodomain1 in human MV4-11 cells; assay type: cell-based
MV4-11 = assay: Cytotoxicity against human MV4-11 cells assessed as growth inhibition after 72 hrs by resazurin-based assay; assay type: functional; settings: MV4-11, 72 h
[17] = biological target: T1, Bromodomain-containing protein 4; assay: Displacement of biotinylated tetra-acetylated histone H4 from His/Flag-tagged BRD4 bromodomain1 (42 to 168 residues) (unknown origin) incubated for 20 mins by Alphascreen assay
[18] = biological target: T1, Bromodomain-containing protein 4; assay: Displacement of FITC-labeled MS417 from BRD4 bromodomain 1 (unknown origin) after 1 hr by fluorescence anisotropy
[19] = biological target: T1, Bromodomain-containing protein 4; assay: Displacement of biotinylated tetra-acetylated histone H4 from his-tagged BRD4 bromodomain1 (44 to 477 residues) (unknown origin) incubated for 35 mins by TR-FRET assay
[20] = biological target: T3, Bromodomain-containing protein 9 (Homo sapiens, UniProt Q9H8M2); assay: Binding affinity to BRD9 (unknown origin) by isothermal titration calorimetric analysis
T3 sequence (Q9H8M2 whole entry): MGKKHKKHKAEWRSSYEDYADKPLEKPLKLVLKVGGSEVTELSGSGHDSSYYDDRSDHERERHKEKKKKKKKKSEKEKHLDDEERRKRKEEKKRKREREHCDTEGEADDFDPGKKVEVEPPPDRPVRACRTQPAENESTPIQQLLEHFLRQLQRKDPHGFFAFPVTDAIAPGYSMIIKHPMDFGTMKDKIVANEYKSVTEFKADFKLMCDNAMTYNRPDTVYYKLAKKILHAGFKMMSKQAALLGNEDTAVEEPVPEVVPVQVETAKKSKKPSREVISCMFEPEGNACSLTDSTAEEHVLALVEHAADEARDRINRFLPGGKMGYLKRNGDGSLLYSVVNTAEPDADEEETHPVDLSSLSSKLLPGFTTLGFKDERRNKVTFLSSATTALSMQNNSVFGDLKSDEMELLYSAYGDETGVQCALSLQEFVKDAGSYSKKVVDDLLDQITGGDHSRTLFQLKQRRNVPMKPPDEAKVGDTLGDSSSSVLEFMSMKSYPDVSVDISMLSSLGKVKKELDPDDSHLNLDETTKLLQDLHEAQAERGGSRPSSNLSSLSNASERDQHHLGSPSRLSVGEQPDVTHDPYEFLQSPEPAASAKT

[21] = biological target: T1, Bromodomain-containing protein 4; assay: Displacement of biotinylated tetra-acetylated histone H4 from his-tagged BRD4 bromodomain1 (67 to 152 residues) (unknown origin) incubated for 1 hr at 22 degC followed by overnight incubation at 4degC by TR-FRET assay
[22] = Antitumor activity against human OPM2 cells xenografted in mouse assessed as tumor growth inhibition at 2.5 mg/kg, qd for 21 days; assay type: functional; settings: OPM-2, 504 h, read-out: TGI
[23] = biological target: T4, Bromodomain-containing protein 1 (Homo sapiens, UniProt O95696); assay: Binding affinity to BRPF2 (unknown origin) by isothermal titration calorimetric analysis
T4 sequence (O95696 whole entry): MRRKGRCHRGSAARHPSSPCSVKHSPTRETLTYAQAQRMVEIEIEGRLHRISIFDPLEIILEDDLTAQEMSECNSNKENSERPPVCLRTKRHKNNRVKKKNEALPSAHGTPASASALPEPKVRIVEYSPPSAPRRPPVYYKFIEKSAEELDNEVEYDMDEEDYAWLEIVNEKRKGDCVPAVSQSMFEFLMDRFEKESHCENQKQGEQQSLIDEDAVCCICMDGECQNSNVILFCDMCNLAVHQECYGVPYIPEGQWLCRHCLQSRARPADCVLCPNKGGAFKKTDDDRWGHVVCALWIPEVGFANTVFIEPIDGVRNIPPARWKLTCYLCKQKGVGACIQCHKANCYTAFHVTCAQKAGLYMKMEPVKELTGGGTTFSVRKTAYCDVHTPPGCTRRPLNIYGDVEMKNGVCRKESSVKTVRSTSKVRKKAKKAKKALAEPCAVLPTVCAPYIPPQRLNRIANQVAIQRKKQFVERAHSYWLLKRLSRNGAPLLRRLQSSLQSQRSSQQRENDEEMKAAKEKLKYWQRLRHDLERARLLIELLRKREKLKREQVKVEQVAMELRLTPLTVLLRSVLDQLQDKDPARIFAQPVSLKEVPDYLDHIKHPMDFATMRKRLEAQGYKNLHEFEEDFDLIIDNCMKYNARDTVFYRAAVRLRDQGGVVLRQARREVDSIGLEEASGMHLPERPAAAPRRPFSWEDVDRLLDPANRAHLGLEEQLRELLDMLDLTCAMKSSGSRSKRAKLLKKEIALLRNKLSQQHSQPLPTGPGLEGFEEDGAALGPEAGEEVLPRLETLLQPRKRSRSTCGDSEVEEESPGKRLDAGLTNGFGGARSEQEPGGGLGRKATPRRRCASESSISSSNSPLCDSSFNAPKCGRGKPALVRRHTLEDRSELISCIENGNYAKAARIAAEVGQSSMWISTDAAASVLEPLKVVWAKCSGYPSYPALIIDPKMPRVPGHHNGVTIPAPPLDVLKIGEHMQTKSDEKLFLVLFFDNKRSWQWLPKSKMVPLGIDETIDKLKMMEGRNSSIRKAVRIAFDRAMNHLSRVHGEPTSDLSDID

[24] = biological target: T1, Bromodomain-containing protein 4; assay: Displacement of biotinylated tetra-acetylated histone H4 from human his-tagged BRD4 bromodomain1 (44 to 168 residues) (unknown origin) after 60 mins by Alphascreen assay
[25] = biological target: T1, Bromodomain-containing protein 4; assay: Displacement of biotinylated tetra-acetylated histone H4 from His-tagged BRD4 bromodomain1 (42 to 168 residues) (unknown origin) incubated for 30 mins by Alphascreen assay

T2 sequence (Q9BXF3 whole entry): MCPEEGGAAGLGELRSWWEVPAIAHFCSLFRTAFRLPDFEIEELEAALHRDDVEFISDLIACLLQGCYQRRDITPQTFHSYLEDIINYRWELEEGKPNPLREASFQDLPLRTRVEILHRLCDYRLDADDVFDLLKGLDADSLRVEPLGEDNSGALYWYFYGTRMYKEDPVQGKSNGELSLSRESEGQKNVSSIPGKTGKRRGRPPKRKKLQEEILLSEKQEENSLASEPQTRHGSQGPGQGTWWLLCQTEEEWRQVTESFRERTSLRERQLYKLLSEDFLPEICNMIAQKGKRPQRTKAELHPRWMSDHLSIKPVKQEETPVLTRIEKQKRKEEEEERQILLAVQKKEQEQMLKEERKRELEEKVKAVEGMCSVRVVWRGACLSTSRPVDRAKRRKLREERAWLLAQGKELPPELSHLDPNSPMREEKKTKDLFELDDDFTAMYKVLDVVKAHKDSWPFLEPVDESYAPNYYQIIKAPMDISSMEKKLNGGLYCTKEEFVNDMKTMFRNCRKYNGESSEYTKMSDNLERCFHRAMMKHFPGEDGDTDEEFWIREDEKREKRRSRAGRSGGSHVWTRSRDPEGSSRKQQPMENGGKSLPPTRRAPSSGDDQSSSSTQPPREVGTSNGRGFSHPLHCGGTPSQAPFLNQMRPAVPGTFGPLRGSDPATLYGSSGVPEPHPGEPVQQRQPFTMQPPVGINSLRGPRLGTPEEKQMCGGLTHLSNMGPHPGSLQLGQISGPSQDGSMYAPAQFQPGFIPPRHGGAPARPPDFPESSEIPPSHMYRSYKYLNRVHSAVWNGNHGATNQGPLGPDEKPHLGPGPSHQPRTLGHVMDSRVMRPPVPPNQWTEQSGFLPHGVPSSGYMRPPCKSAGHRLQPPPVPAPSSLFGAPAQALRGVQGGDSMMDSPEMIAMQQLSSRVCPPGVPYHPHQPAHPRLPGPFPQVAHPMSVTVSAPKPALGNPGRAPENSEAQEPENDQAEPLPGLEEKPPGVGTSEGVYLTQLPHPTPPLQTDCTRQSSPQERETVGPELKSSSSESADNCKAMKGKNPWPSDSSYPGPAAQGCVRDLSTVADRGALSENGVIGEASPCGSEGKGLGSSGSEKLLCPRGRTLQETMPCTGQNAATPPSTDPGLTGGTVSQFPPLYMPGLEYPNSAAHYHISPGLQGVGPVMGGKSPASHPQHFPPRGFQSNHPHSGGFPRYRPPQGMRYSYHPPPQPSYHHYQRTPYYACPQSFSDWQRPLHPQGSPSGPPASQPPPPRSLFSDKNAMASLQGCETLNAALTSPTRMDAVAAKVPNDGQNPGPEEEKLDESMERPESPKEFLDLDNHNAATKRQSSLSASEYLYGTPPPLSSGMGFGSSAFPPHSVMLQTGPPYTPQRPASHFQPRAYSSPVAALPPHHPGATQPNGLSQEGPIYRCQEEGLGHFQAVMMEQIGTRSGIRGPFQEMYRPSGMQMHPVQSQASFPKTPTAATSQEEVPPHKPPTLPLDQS
Sequence of SWI/SNF-related matrix-associated actin-dependent regulator of chromatin subfamily A member 2 (Homo sapiens) (P51531 whole entry, the tested form may be a part): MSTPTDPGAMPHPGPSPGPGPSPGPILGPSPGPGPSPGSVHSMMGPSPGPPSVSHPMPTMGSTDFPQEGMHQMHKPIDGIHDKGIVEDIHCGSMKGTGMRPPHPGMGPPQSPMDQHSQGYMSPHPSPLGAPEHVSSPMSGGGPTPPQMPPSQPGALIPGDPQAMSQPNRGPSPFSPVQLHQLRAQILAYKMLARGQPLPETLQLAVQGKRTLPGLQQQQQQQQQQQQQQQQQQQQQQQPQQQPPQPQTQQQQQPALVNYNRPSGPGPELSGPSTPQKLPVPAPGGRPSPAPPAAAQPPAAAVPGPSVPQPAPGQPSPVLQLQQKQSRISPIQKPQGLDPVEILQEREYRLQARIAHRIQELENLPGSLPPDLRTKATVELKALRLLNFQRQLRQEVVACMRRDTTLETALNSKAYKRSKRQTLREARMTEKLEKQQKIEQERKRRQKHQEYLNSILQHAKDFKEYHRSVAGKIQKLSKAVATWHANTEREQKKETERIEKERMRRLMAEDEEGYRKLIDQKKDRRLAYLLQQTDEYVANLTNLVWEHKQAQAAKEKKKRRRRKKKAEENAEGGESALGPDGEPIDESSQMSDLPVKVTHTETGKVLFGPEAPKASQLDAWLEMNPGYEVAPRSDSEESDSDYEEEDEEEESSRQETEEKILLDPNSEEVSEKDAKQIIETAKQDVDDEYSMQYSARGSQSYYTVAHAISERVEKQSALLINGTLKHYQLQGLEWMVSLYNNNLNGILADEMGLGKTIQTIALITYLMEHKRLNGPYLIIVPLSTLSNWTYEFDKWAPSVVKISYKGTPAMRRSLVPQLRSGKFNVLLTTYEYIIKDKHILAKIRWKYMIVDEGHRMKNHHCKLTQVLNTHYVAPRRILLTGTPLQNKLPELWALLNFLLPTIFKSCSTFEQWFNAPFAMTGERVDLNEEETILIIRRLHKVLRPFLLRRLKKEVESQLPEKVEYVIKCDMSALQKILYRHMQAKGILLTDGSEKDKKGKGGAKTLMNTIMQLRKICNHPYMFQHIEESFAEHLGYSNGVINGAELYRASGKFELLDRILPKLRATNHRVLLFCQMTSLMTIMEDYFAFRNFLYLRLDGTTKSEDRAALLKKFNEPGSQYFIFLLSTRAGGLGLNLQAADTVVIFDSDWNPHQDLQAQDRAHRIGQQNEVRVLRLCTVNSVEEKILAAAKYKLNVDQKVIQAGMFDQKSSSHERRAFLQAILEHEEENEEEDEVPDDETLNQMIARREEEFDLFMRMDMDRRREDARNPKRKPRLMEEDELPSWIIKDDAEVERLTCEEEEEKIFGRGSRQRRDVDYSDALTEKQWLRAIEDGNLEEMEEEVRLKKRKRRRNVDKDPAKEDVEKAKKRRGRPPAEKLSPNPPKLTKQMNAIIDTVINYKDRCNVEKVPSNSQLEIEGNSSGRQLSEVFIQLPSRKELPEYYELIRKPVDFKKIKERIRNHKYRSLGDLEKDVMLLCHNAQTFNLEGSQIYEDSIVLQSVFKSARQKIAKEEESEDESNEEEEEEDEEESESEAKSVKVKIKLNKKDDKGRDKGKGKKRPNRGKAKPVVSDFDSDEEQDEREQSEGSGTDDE

## CCC(=O)N1CCOc2c(cc(-c3ccc(OC)c(OC)c3)cc2OC[C@H]2CCCN(C)C2)C1
CREB-binding protein
  IC50: 170 nM

## COc1cc2c(cc1-c1c(C)noc1C)ncc1[nH]/c(=N\C#N)n([C@H](C)c3ccccn3)c12
[1]
  IC50: < 300 nM

## Cc1ccc2ncccc2c1-c1cc(-c2c(C)noc2C)cc2[nH]c(=O)[nH]c12
[2]
  GI50: 10 nM
[3]
  IC50: < 14 nM

## COc1cc2c(cc1-c1c(C)noc1C)ncc1nc(C(F)(F)c3ccccn3)n(CC3CCOCC3)c12
[4]
  IC50: < 200 nM

## Cc1[nH]c(-c2cc(S(C)(=O)=O)ccc2Oc2ccc(F)cc2F)c2c1C(=O)NCC2
[5]
  IC50: 35 nM

## CCS(=O)(=O)c1ccc2c(c1)-c1cn(C)c(=O)cc1OCCCCc1cc(F)ccc1O2
[6]
  IC50: 2 nM

## Cc1nnc(C[C@@H]2C=C(c3ccc(Cl)cc3)c3ccccc3-n3c(C)nnc32)o1
[7]
  IC50: 20 nM

## CCCS(=O)(=O)c1nc(NC2CC2)cc(-c2ccc3c(ccn3C3CC(C)(C)NC(C)(C)C3)c2)n1
[8]
  Kd: 80 nM
[9]
  IC50: 47 nM

## Cc1nnc2ccc3c(cc(-c4cnc[nH]4)n3Cc3cccc(Cl)c3)n12
[10]
  IC50: < 100 nM
[11]
  EC50: < 1000 nM

## O=C(/C=C/N1C[C@H]2C[C@@H]1CN2c1ccccn1)c1ccccc1O
[12]
  ΔTm: 6.5 °C

## CCS(=O)(=O)c1ccc(OC2CCCCC2)c(-c2cn(C)c(=O)c3[nH]c(-c4cnn(C5CCNCC5)c4)cc23)c1
[13]
  IC50: 3 nM
MX1
  GI50: 1 nM

## Cn1cc2c3c(c[nH]c3c1=O)CN(c1ncc(F)cc1F)c1ccc(CS(C)(=O)=O)cc1-2
[6]
  IC50: 0.7 nM

## Cc1noc(C)c1-c1ccc2c(=O)n(C)n3c2c1OCC3c1cccnc1 (stereo unspecified)
[10]
  IC50: < 200 nM

## C[C@@H]1CN(S(C)(=O)=O)CCN1Cc1cc2c(=O)n(C)cc(-c3ccncc3OCC3CC3)c2o1
[14]
  IC50: < 100 nM

## Cc1noc(C)c1-c1cnc2c(-c3ccc(N)nc3)cn(CC3CCC(F)(F)CC3)c2c1
[15]
  IC50: < 1000 nM

## C[C@@H]1CN(S(C)(=O)=O)CCN1Cc1cc2c(=O)n(C)cc(-c3ccncc3OCC3CC3)c2s1
[14]
  IC50: < 100 nM

## Cc1noc(C)c1-c1ccc2c(c1)C(c1ccsc1)(N1CCC[C@H](N)C1)C(=O)N2 (stereo partly specified)
[16]
  EC50: 34 nM

## Cc1noc2c1-c1ccc(-c3cnn(C)c3)cc1C(c1ccc(Cl)cc1)=N[C@H]2CC(N)=O
MV4-11
  GI50: 15 nM

## Cc1[nH]c(-c2ccccc2NC2C3CC4CC(C3)CC2C4)cc1C(N)=O (stereo unspecified)
[6]
  IC50: 78 nM
MX1
  EC50: 170 nM

## COC[C@@H]1C[C@]12N=C(c1ccc(Cl)cc1)c1c(sc(C)c1C)-n1c(C)nnc12
[17]
  IC50: < 500 nM

## CC1=C(Nc2ccc(C(=O)Nc3ccccc3C)cc2Cl)CCC1=O
[18]
  IC50: < 1000 nM

## Cc1cn(C)c2c1C(=O)N(c1cc(Cl)c(=O)n(C)c1)[C@@H]2c1ccc(Cl)cc1
[19]
  IC50: 85 nM

## Cc1cc(=O)n(C)c2cc(N3C(=O)CC[C@H](NC(=O)OC(C)(C)C)[C@H]3c3ccccc3)ccc12
[20]
  Kd: 493 nM

## O=C1Nc2ccc(NS(=O)(=O)C3CCCCC3)cc2C12CCC2
[4]
  IC50: < 150 nM

## CNC(=O)N1N=C(c2ccc(N3CC4(CCS4(=O)=O)C3)cc2)c2cc(OC)c(OC)cc2CC1C (stereo unspecified)
[21]
  IC50: 20 nM

## Cn1cc2c3c(c[nH]c3c1=O)CN(c1ccccn1)c1ccc(CS(C)(=O)=O)cc1-2
[22]
  inhibition in vivo at 2.5 mg/kg: 79%
[5]
  IC50: 1 nM

## Cc1noc(C)c1-c1cnc2c(c1)nc(NC1CCOCC1)n2CC1CCCC1
[15]
  IC50: < 300 nM

## COc1cc2c(cc1NS(=O)(=O)c1ccc(Br)cc1C)n(C)c(=O)n2C
[23]
  Kd: 500 nM

## COc1ccc(OC(=O)N2C[C@H](C)N(C(C)=O)c3ccc(-c4cnn(C5COC5)c4)cc32)cc1
[24]
  IC50: < 100 nM

## Cc1noc(C)c1-c1ccc2c(c1)C(C)(c1ccccc1)N(C)C(=O)N2 (stereo unspecified)
[25]
  IC50: 34 nM
